Assay results reported in patent publication EP2860184A1, “Dihydrogenphosphate salt of Tenofovir disoproxil” (Zentiva, k.s., priority 2013, dated 2015).
Where a name gives a salt, the structure may show the parent alone.

What was measured:
[1] = Chemical stability stress test (HPLC purity before and after); format: physicochemical; conditions: for Starting HPLC purity (%): before the stress test; for HPLC purity (%) after the stress test: stress conditions: 80°C for 46 hours, 2760 min
Experimental: Physico-chemical properties (stability and solubility) of Tenofovir disoproxil dihydrogenphosphate were compared with other known salts (Tenofovir disoproxil fumarate, citrate, succinate, L-tartrate, D-tartrate, maleate) prepared according to published procedures. Table 2: Chemical stability of Tenofovir disoproxil and its salts (stress conditions: 80°C for 46 hours)
Column: Zorbax Eclipse XDB C18 RRHD, 100 x 3.0 mm (I.D.) x 1.8 um (Agilent), Run Time: 11.5 min., Injection Volume: 2 µl, Mobile Phase: MFA: 10mM K2HPO4 pH=7,0; MFB: ACN; MFA: 90-40-40-90; t: 0-7-9-9,5; F: 0,5 ml/min; 35°C

[2] = Apparent solubility and dissolution rate of the salts (Figure 3); format: physicochemical; conditions: compared with other salts, including Tenofovir disoproxil fumarate
Source text: The active substance solubility is important for bioavailability of the drug.
• Figure 1: DSC of Tenofovir disoproxil dihydrogenphosphate • Figure 2: 1H NMR of Tenofovir disoproxil dihydrogenphosphate • Figure 3: The apparent solubility and dissolution rate of Tenofovir disoproxil salts • Figure 4: Typical HPLC chromatogram of Tenofovir disoproxil dihydrogenphosphate prepared from Tenofovir disoproxil base • Figure 5: SEM images of Tenofovir disoproxil dihydrogenphosphate prepared from Tenofovir disoproxil • Figure 6: Typical HPLC chromatogram of Tenofovir disoproxil dihydrogenphosphate prepared from Tenofovir disoproxil fumarate • Figure 7: SEM images of Tenofovir disoproxil dihydrogenphosphate prepared from Tenofovir disoproxil fumarate

[3] = API solid form change during drug product manufacture (wet granulation); format: physicochemical
Source text: Moreover, we observed partial the conversion (about 30 %) of Tenofovir disoproxil fumarate (Formula II) in Tenofovir disoproxil hemifumarate (Formula III) during our formulation trials using wet granulation process.
Diffraction patterns were obtained with laboratory X'PERT PRO MPD PANalytical diffractometer, radiation used CuKα (λ = 1.542/Å). Generator settings: excitation voltage 45 kV, anodic current 40 mA. Scan description: scan type - gonio, measurement range 2 - 40º 2θ, step size 0.01º 2θ, step time: 0.5 s. Samples were measured as received on Si plate (zero background holder). Incident beam optics: programmable divergence slits (irradiated length 10 mm), 10 mm mask, 1/4º anti-scatter fixed slit, 0.02 rad Soller slits. Diffracted beam optics: X'Celerator detector, scanning mode, active length 2.122º, 0.02 rad Soller slits, anti-scatter slit 5.0 mm, Ni filter.
Tenofovir disoproxil dihydrogenphosphate (300 g), lactose monohydrate (206 g), microcrystalline cellulose (Avicel pH 101; 50 g), croscarmellose sodium (30 g), polyvinylpyrolidone K-25 (20 g) and magnesium stearate (10 g) were sieved. The mixture was loaded to high shear granulator. Purified water (150 ml) was sprayed on the blend in short time intervals and the mixture was kneaded to granules. The wet granules were dried in an oven at 60°C. The dried granules were milled and sieved. […]

[4] = in the presence of increased humidity and/or temperature; cited from earlier work

SMILES	Starting HPLC purity (%) [1] [%]	HPLC purity (%) after the stress test [1] [%]	Solubility [2]	Chemical stability compared with other salts ([1]; compared with fumarate, citrate, succinate, L-tartrate, D-tartrate, maleate, 80°C for 46 hours)	changes in API solid form ([3]; manufacturing of a drug product)	solid form conversion [4]	conversion in Tenofovir disoproxil hemifumarate ([3]; formulation trials using wet granulation process)
CC(C)OC(=O)OCOP(=O)(CO[C@H](C)Cn1cnc2c(N)ncnc21)OCOC(=O)OC(C)C [Tenofovir disoproxil (free base), 9-[-2-(R)-[[bis[[(isopropoxycarbonyl)oxy]methoxy]phosphinoyl]methoxy]propyl] adenine]	95.66	6.13					
CC(C)OC(=O)OCOP(=O)(CO[C@H](C)Cn1cnc2c(N)ncnc21)OCOC(=O)OC(C)C [Tenofovir disoproxil D-tartrate]	99.66	25.51					
CC(C)OC(=O)OCOP(=O)(CO[C@H](C)Cn1cnc2c(N)ncnc21)OCOC(=O)OC(C)C [Tenofovir disoproxil L-tartrate]	98.10	21.12					
CC(C)OC(=O)OCOP(=O)(CO[C@H](C)Cn1cnc2c(N)ncnc21)OCOC(=O)OC(C)C [Tenofovir disoproxil dihydrogenphosphate]	99.66	97.69	superior to other salts	the most stable salt of Tenofovir disoproxil	no changes in API solid form		
CC(C)OC(=O)OCOP(=O)(CO[C@H](C)Cn1cnc2c(N)ncnc21)OCOC(=O)OC(C)C [Tenofovir disoproxil fumarate]	99.81	4.08				converts into Tenofovir disoproxil hemifumarate	about 30%
CC(C)OC(=O)OCOP(=O)(CO[C@H](C)Cn1cnc2c(N)ncnc21)OCOC(=O)OC(C)C [Tenofovir disoproxil succinate]	99.04	54.16					
